# Source: the supplement of paper PMC7287046
# Experiments:
# Details in all cases: exposure time: 72 h
# [1] = tested on: AM-38; test: HSA synergy score (Combenefit); higher = more synergy
# Description: (§1)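 The same 6x6 dose matrices of drug pairs on glioma cell lines (72 h, CellTiter-Glo viability normalised to DMSO, triplicate) were scored with Combenefit. The Loewe, Bliss and HSA synergy scores are given; paper thresholds are Loewe 7.8 and Bliss 2.5.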
# [2] = tested on: KNS-42; test: as above
# Description: as §1
# [3] = tested on: SF268; test: as above
# Description: as §1
# [4] = tested on: SF539; test: as above
# Description: as §1
# [5] = tested on: SNB75; test: as above
# Description: as §1
# [6] = tested on: T98G; test: as above
# Description: as §1
# [7] = tested on: U118; test: as above
# Description: as §1
# [8] = tested on: U251; test: as above
# Description: as §1
# [9] = tested on: U87; test: as above
# Description: as §1
# [10] = tested on: AM38; test: Chou-Talalay combination index (dimensionless); higher = less synergy (more antagonism)
# Description: (§2)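 Glioma cell lines were treated for 72 h with a 6x6 matrix of two drugs, each in twofold dilutions with the top dose at the single-drug IC50. Viability was read by CellTiter-Glo and normalised to DMSO controls, in triplicate. The Chou-Talalay combination index was computed by the median effect principle; CI < 0.8 means synergy.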
# [11] = tested on: KNS42; test: as above
# Description: as §2
# [12] = tested on: SF268; test: as above
# Description: as §2
# [13] = tested on: SF539; test: as above
# Description: as §2
# [14] = tested on: SNB75; test: as above
# Description: as §2
# [15] = tested on: T98; test: as above
# Description: as §2
# [16] = tested on: U118; test: as above
# Description: as §2
# [17] = tested on: U251; test: as above
# Description: as §2
# [18] = tested on: U87; test: as above
# Description: as §2
# [19] = tested on: AM-38; test: Bliss synergy score (Combenefit); higher = more synergy; extreme values may be limits of the assay
# Description: as §1
# [20] = tested on: KNS-42; test: as above
# Description: as §1
# [21] = tested on: SF268; test: as above
# Description: as §1
# [22] = tested on: SF539; test: as above
# Description: as §1
# [23] = tested on: SNB75; test: as above
# Description: as §1
# [24] = tested on: T98G; test: as above
# Description: as §1
# [25] = tested on: U118; test: as above
# Description: as §1
# [26] = tested on: U251; test: as above
# Description: as §1
# [27] = tested on: U87; test: as above
# Description: as §1
# [28] = tested on: AM-38; test: Loewe synergy score (Combenefit); higher = more synergy; extreme values may be limits of the assay
# Description: as §1
# [29] = tested on: KNS-42; test: as above
# Description: as §1
# [30] = tested on: SF268; test: as above
# Description: as §1
# [31] = tested on: SF539; test: as above
# Description: as §1
# [32] = tested on: SNB75; test: as above
# Description: as §1
# [33] = tested on: T98G; test: as above
# Description: as §1
# [34] = tested on: U118; test: as above
# Description: as §1
# [35] = tested on: U251; test: as above
# Description: as §1
# [36] = tested on: U87; test: as above
# Description: as §1
SMILES,HSA synergy score [1],HSA synergy score [2],HSA synergy score [3],HSA synergy score [4],HSA synergy score [5],HSA synergy score [6],HSA synergy score [7],HSA synergy score [8],HSA synergy score [9],Chou-Talalay combination index [10],Chou-Talalay combination index [11],Chou-Talalay combination index [12],Chou-Talalay combination index [13],Chou-Talalay combination index [14],Chou-Talalay combination index [15],Chou-Talalay combination index [16],Chou-Talalay combination index [17],Chou-Talalay combination index [18],Bliss synergy score [19],Bliss synergy score [20],Bliss synergy score [21],Bliss synergy score [22],Bliss synergy score [23],Bliss synergy score [24],Bliss synergy score [25],Bliss synergy score [26],Bliss synergy score [27],Loewe synergy score [28],Loewe synergy score [29],Loewe synergy score [30],Loewe synergy score [31],Loewe synergy score [32],Loewe synergy score [33],Loewe synergy score [34],Loewe synergy score [35],Loewe synergy score [36]
CCC(=O)N1CCN(c2ccc(-n3c(=O)ccc4cnc5ccc(-c6cnc7ccccc7c6)cc5c43)cc2C(F)(F)F)CC1 [Torin1] + C#Cc1cccc(Nc2ncnc3cc(OCCOC)c(OCCOC)cc23)c1 [Erlotinib],0,3.86,15.2,14,18.2,11.1,20.5,35.3,11.5,0.754,0.917,0.819,0.678,0.61,0.249,0.744,0.279,0.58,0,1.13,0.392,0.68,15.6,4.09,2.65,25.4,0.359,0,3.69,10.5,9.6,10.2,11,13.7,32.9,6.1
C[C@@H](Oc1cc(-c2cnn(C3CCNCC3)c2)cnc1N)c1c(Cl)ccc(F)c1Cl [Crizotinib] + CCOc1nc(NC(=O)Cc2cc(OC)ccc2OC)cc(N)c1C#N [JNK inhibitor VIII],1.09,5.67,6.62,13.6,10.4,2.65,9.81,6.52,0,1.13,0.929,0.637,0.458,0.972,0.945,0.732,0.838,2.67,0,1.72,2.4,5.02,0,0.922,5.36,4.44,0,0.954,2.75,1.66,2.32,4.28,2.42,4.11,6.52,0
C[C@@H](Oc1cc(-c2cnn(C3CCNCC3)c2)cnc1N)c1c(Cl)ccc(F)c1Cl [Crizotinib] + Cc1cc([C@@H](C)Nc2ccccc2C(=O)O)c2nc(N3CCOCC3)cc(=O)n2c1 [AZD6482],11.9,4.57,6.69,10.7,9.49,4.32,3.87,16.2,5.48,0.52,0.887,0.786,0.842,0.802,0.543,0.844,0.567,0.652,4.62,3.3,0.801,0.821,0.559,4.32,0.491,12.8,5.48,3.58,3.35,3.44,2.57,3.14,4.32,3.69,16.2,5.48
Cc1cc([C@@H](C)Nc2ccccc2C(=O)O)c2nc(N3CCOCC3)cc(=O)n2c1 [AZD6482] + CCOc1nc(NC(=O)Cc2cc(OC)ccc2OC)cc(N)c1C#N [JNK inhibitor VIII],17,0.866,4.35,7.49,6.97,11.5,8.89,0.00428,1,0.77,0.994,0.792,0.545,1,0.758,0.669,0.731,0.576,14.5,0.255,0.107,0.0312,6.97,10.8,2.95,0.00428,1,15.4,0.866,0.654,1.84,6.97,11.5,2.68,0.00428,1
CCCCCCCCCCCC1=C(O)C(=O)C=C(O)C1=O [Embelin] + N#CC(c1ccnc(NCCc2cccnc2)n1)c1nc2ccccc2s1 [AS601245],1.14,12.6,5.6,1.24,2.04,11.9,4.61,1.11,10.3,0.867,0.78,0.923,0.84,0.365,0.365,0.639,0.88,0.0258,0.346,7.8,1.91,0.103,0.833,6.12,2.98,1.11,9.51,0,2.73,0.00767,0.787,0.557,6.59,4.39,1.11,0.927
CO[C@H]1C[C@@H]2CC[C@@H](C)[C@@](O)(O2)C(=O)C(=O)N2CCCC[C@H]2C(=O)O[C@H]([C@H](C)C[C@@H]2CC[C@@H](O)[C@H](OC)C2)CC(=O)[C@H](C)/C=C(\C)[C@@H](O)[C@@H](OC)C(=O)[C@H](C)C[C@H](C)/C=C/C=C/C=C/1C [Rapamycin] + C=CCc1cccc(/C=N/NC(=O)CN2CCN(Cc3ccccc3)CC2)c1O [PAC-1],0.274,14.1,5.88,4.8,8.87,1.1,4.75,0.552,0.71,1.24,0.607,0.962,0.975,0.925,1.13,1.03,0.927,1.01,0,5.47,0,0.0748,0.0756,0,0,0.334,0,0.274,13.7,5.45,3.72,7.67,0,3.97,0.233,0
Nc1ccn([C@@H]2O[C@H](CO)[C@@H](O)C2(F)F)c(=O)n1 [Gemcitabine] + CCOc1nc(NC(=O)Cc2cc(OC)ccc2OC)cc(N)c1C#N [JNK inhibitor VIII],0,0.883,0.909,2.34,5.13,0.133,0.0469,0,22.2,1.14,0.946,1.03,0.933,0.913,0.958,1.03,1.16,0.631,0,0.163,0.306,0.139,0.369,0.133,0,0,5.17,0,0.883,0.121,0.162,2.33,0.133,0.043,0,22.2
CCC(=O)N1CCN(c2ccc(-n3c(=O)ccc4cnc5ccc(-c6cnc7ccccc7c6)cc5c43)cc2C(F)(F)F)CC1 [Torin1] + O=c1[nH]c2ccccc2n1C1CCN(Cc2ccc(-c3[nH]c4cc5ncnc5cc4nc3-c3ccccc3)cc2)CC1 [Akt inhibitor VIII],14.7,16.1,13.5,10.4,3.56,9.39,17.9,1.85,6.03,0.83,0.852,0.85,0.778,0.591,0.645,0.769,0.878,0.797,0.504,6.55,0.944,3.46,0.0946,4.49,5.39,1.02,5.43,7.92,11.3,5.18,9.28,0.719,2.94,9.44,0.27,0.347
C[C@@H](Oc1cc(-c2cnn(C3CCNCC3)c2)cnc1N)c1c(Cl)ccc(F)c1Cl [Crizotinib] + C=CCc1cccc(/C=N/NC(=O)CN2CCN(Cc3ccccc3)CC2)c1O [PAC-1],0.987,16.5,1.21,3.88,5.78,2.4,2.29,1.43,4.47,0.937,0.421,1.04,0.877,0.951,0.476,0.584,0.821,0.154,0.773,7.19,0,1.39,0.417,2.4,0.539,0.0857,4.47,0.141,15.3,0.692,0.62,0.297,2.4,0.609,1.22,4.47
